Measured values taken from US20170007633A1, “TREATMENT OF NEURODEGENERATIVE AND NEURODEVELOPMENTAL DISEASES BY INHIBITION OF THE a2-Na/K ATPase/a-ADDUCIN COMPLEX” (PRESIDENT AND FELLOWS OF HARVARD COLLEGE, priority 2014, published 2017).
Entries after “also recorded” stand apart in the source; their conditions may differ.

How the values were obtained:
[1] = tested on: motor neurons co-cultured with SOD1^G93A astrocytes (Na/K ATPase); test: co-culture of SOD1^G93A or control astrocytes with primary motor neurons, pharmacological inhibition of Na/K ATPase; details: for impairment of dendrite morphology in motor neurons induced by SOD1^G93A astrocytes / motor neuron cell death induced by SOD1^G93A astrocytes: final concentration of 1 μm; for motor neuron cell death induced by SOD1^G93A astrocytes: vehicle 56%, 7 days of co-culture
Procedure: Monolayer astrocytes culture from P2 SOD1^G93A and non-transgenic littermate mice were prepared as described in Di Giorgio et al., Nat. Neurosci. 10:608-614 (2007) and Nagai et al., Nat. Neurosci. 10:615-622 (2007), each of which is incorporated by reference. Astrocytes were plated in DMEM (GIBCO) supplemented with 10% FBS containing 100 U/ml penicillin and […] for two weeks or until confluent. Once confluent, cells were replated onto glass cover slips precoated with poly-D-lysine at a density of 40,000 cells/well in a 24-well dish. For RNAi experiment astrocyte cultures were transfected with RNAi or control U6 plasmid using Lipofectamine 2000 (Invitrogen) according to the guidelines of the manufacturer four days prior to co-culturing with motor neurons.
Spinal motor neuronal cultures from E12.5 wild-type rodents were performed as described in Gingras et al., J. Neurosci. Methods 163:11-118 (2007), which is hereby incorporated by reference. Cultures were plated astrocyte monolayers at 12,000 cells/well in Neurobasal-A medium (GIBCO) supplemented with 2% B-27 serum free supplement and 0.5 mM glutamine; DMEM/F12 (3:1, v/v ratio) with a cocktail of trophic factors composed of 0.5 ng/ml glia-derived neurotrophic factor, 1 ng/ml brain-derived neurotrophic factor and 10 ng/ml ciliary neurotrophic factor (trophic factor cocktail, R&D Systems).
Motor neurons were fixed after 7 days of co-cultures with astrocytes and immunostained with Islet1, MAP2 and Hoechst 33258 and subjected to cell survival. Approximately 150 cells were counted per cover slip. For pharmacological inhibition of Na/K ATPase in co-cultures. […] For motor neuron morphology images were taken using a NIKON eclipse TE2000 epifluorescence microscope using a digital CCD camera (DIAGNOSTIC instruments) and imported into the SPOT imaging software. Approximately 40 cells were analyzed per cover slip.

SOD1^G93A mice = format: in vivo
Procedure: Transgenic mice overexpressing mutant G93A human superoxide dismutase 1 (Jackson Laboratory stock#002726). α2-Na/K ATPase null heterozygous (provided by Dr. Jerry B. Lingrel) and C57BL6 (Charles River) were used. All analysis was done with littermate mice derived from SOD1^G93A heterozygous mating with non-transgenic wild type and heterozygous α2-Na/K ATPase mice. All animal experiments were conducted under the institutional guidelines and were approved by the Institutional Animal Care and Use Committee (IACUC).
All morphological studies were performed as described in Chandra et al., Cell 123:383-396 (2005), which is incorporated by reference. Briefly, mice were deeply anesthetized and perfused with 4% paraformaldehyde in phosphate buffer. Spinal cords were post-fixed in the same fixative for 4 hours and processed for cryoprotective embedding. Immunohistochemistry analyses were carried out on 30 um cryosections from spinal cords with the indicated antibodies. […] For lentiviral mediated RNAi a minimum of 20 sections were quantified for surviving motor neurons in the injected and non-injected ventral horns from Nissl stained and immunofluorescence labeled sections.

Row | Substance | non-cell autonomous cell death and dendrite abnormalities induced by SOD1^G93A astrocytes (FIG. 5) [1] | survival or morphology of motor neurons co-cultured with control (non-transgenic) astrocytes [1] | impairment of dendrite morphology in motor neurons induced by SOD1^G93A astrocytes [1] | motor neuron cell death induced by SOD1^G93A astrocytes [1] [%] | motor neurons per ventral horn section (SOD1^G93A mice; 1 mg/kg intraperitoneal on a 48-hour cycle from 80 days, toward end stage (130±5 days), vehicle 4.66±0.40) | motor neuron survival / degeneration in SOD1^G93A mice (SOD1^G93A mice; intraperitoneal digoxin compared to vehicle)
1 | digoxin | neuroprotective | did not alter survival or morphology of motor neurons; also recorded: did not alter motor neuron survival or morphology | prevented impairment of dendrite morphology | 19 | 7.20±0.21 | protected motor neurons from degeneration; also recorded: significantly increases the number of motor neurons
2 | ouabain | neuroprotective | did not alter survival or morphology of motor neurons; also recorded: did not alter motor neuron survival or morphology | prevented impairment of dendrite morphology | 22 |  | 
